Laboratory results from US11000033B2, “Ketone or oxime compound, and herbicide” (NISSAN CHEMICAL CORPORATION, priority 2014, dated 2021).

Legend:
Type in all cases: in vivo
rice = test: Test Example 4: effect on crop by soil treatment (symbol b); conditions: application herbicide amount 320 g/ha
Summary of the method: (§1)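 The test used sterilized diluvial soil. Seed was set down in spots and overlaid with about 1.5 cm of soil before growth in a greenhouse kept at 25° C. to 30° C.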

Galium spurium [1] = test: Test Example 5: herbicidal effect by foliage application, plastic box (symbol Q); conditions: 320 g/ha, 3 weeks after application
Summary of the method: (§2)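 After sowing into sterilized diluvial soil and growing two weeks under glass at 25° C. to 30° C., seedlings receive a uniform foliar spray of diluted emulsion. Damage is judged visually three weeks on.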

soybean = test: Test Example 4: effect on crop by soil treatment (symbol d); conditions: application herbicide amount 320 g/ha
Summary of the method: as §1

wheat = test: Test Example 5: effect on crop by foliage application, plastic box (symbol e); conditions: 320 g/ha, 3 weeks after application
Summary of the method: (§3)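 Sterilized diluvial soil, plastic box (21 × 13 × 7 cm); spot sowing, ~1.5 cm soil cover; greenhouse 25–30° C.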

Lolium multiflorum Lam. = test: Test Example 4: herbicidal effect by soil treatment (symbol K); conditions: application herbicide amount 320 g/ha
Summary of the method: (§4)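 Seeds were sown in sterilized diluvial soil, covered with about 1.5 cm of soil, and the soil surface was sprayed with a water-diluted emulsion of the compound at a predetermined rate. Plants grew in a greenhouse at 25° C. to 30° C.; effects were scored visually 3 weeks after application.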

Galium spurium [2] = test: Test Example 4: herbicidal effect by soil treatment (symbol Q); conditions: application herbicide amount 320 g/ha
Summary of the method: as §4

rapeseed = test: Test Example 4: effect on crop by soil treatment (symbol g); conditions: application herbicide amount 320 g/ha
Summary of the method: as §1

Veronica persica [3] = test: Test Example 5: herbicidal effect by foliage application, plastic box (symbol R); conditions: 320 g/ha, 3 weeks after application
Summary of the method: as §2

Stellaria media [4] = test: Test Example 5: herbicidal effect by foliage application, plastic box (symbol P); conditions: 320 g/ha, 3 weeks after application
Summary of the method: as §2

Setaria viridis = test: Test Example 5: herbicidal effect by foliage application, plastic box (symbol G); conditions: 320 g/ha, 3 weeks after application
Summary of the method: as §2

Abutilon theophrasti = test: Test Example 5: herbicidal effect by foliage application, plastic box (symbol M); conditions: 320 g/ha, 3 weeks after application
Summary of the method: as §2

Avena fatua = test: Test Example 5: herbicidal effect by foliage application, plastic box (symbol I); conditions: 320 g/ha, 3 weeks after application
Summary of the method: as §2

[5] = test system: Echinochloa crus-galli var. crus-galli; test: Test Example 4: herbicidal effect by soil treatment (symbol H); conditions: application herbicide amount 320 g/ha
Summary of the method: as §4

Digitaria ciliaris [6] = test: Test Example 4: herbicidal effect by soil treatment (symbol F); conditions: application herbicide amount 320 g/ha
Summary of the method: as §4

Veronica persica [7] = test: Test Example 4: herbicidal effect by soil treatment (symbol R); conditions: application herbicide amount 320 g/ha
Summary of the method: as §4

Chenopodium album = test: Test Example 5: herbicidal effect by foliage application, plastic box (symbol O); conditions: 320 g/ha, 3 weeks after application
Summary of the method: as §2

Apera spica-venti = test: Test Example 5: herbicidal effect by foliage application, plastic box (symbol L); conditions: 320 g/ha, 3 weeks after application
Summary of the method: as §2

corn = test: Test Example 4: effect on crop by soil treatment (symbol c); conditions: application herbicide amount 320 g/ha
Summary of the method: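 Steps: fill box with sterilized diluvial soil; sow seed spot-like; cover with ~1.5 cm soil; grow in greenhouse (25° C. to 30° C.).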

Alopecurus myosuroides = test: Test Example 4: herbicidal effect by soil treatment (symbol J); conditions: application herbicide amount 320 g/ha
Summary of the method: as §4

beet [8] = test: Test Example 4: effect on crop by soil treatment (symbol f); conditions: application herbicide amount 320 g/ha
Summary of the method: as §1

[9] = test system: directly sowed rice plant; test: Test Example 3: effect on crop by foliage application, Wagner pot (symbol b); conditions: application herbicide amount 320 g/ha, Table 24
Summary of the method: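 Greenhouse culture at 25–30 °C of seeded rice, Cyperus difformis, Leptochloa chinensis and Echinochloa crus-galli var. crus-galli, in alluvial soil held under 0.1–0.5 cm of water in a Wagner pot.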

rice plant = test: Test Example 5: effect on crop by foliage application, plastic box (symbol b); conditions: 320 g/ha, 3 weeks after application
Summary of the method: as §3

beet [10] = test: Test Example 5: effect on crop by foliage application, plastic box (symbol f); conditions: 320 g/ha, 3 weeks after application
Summary of the method: as §3

Digitaria ciliaris [11] = test: Test Example 5: herbicidal effect by foliage application, plastic box (symbol F); conditions: 320 g/ha, 3 weeks after application
Summary of the method: as §2

Stellaria media [12] = test: Test Example 4: herbicidal effect by soil treatment (symbol P); conditions: application herbicide amount 320 g/ha
Summary of the method: as §4

Q: With `CC#Cc1cc(C)c(C2=C(O)CC(CC(=NOCCOC)C(C)C)C2=O)c(C)c1` (centres unmarked) [9-023] as the compound, how does the “Effect on crop grade, b: directly sowed rice plant” value (rice) read?
A: The value was 5 (Herbicidal ratio of 90% or more (almost completely withered)).

Q: And the “Q: Galium spurium, herbicidal effect grade” value (Galium spurium [1])?
A: Its value is 0 (Herbicidal ratio of 5% or lower (almost no effect)).

Q: And the “Effect on crop grade, d: soybean” value (soybean)?
A: The value was 0 (Herbicidal ratio of 5% or lower (almost no effect)).

Q: And the “e: wheat, effect on crop grade” value (wheat)?
A: Its value is 1 (Herbicidal ratio of 5% or higher and lower than 20%).

Q: And the “Herbicidal effect grade, K: Lolium multiflorum Lam.” value (Lolium multiflorum Lam.)?
A: Its value is 3 (Herbicidal ratio of 40% or higher and lower than 70%).

Q: What about the “Herbicidal effect grade, Q: Galium spurium” value (Galium spurium [2]) of the same compound?
A: Its value is 0 (Herbicidal ratio of 5% or lower (almost no effect)).

Q: What about the “Effect on crop grade, g: rapeseed” value (rapeseed) of the same compound?
A: Its value is 4 (Herbicidal ratio of 70% or higher and lower than 90%).

Q: And the “R: Veronica persica, herbicidal effect grade” value (Veronica persica [3])?
A: The value was 3 (Herbicidal ratio of 40% or higher and lower than 70%).

Q: And the “P: Stellaria media, herbicidal effect grade” value (Stellaria media [4])?
A: The value was 3 (Herbicidal ratio of 40% or higher and lower than 70%).

Q: What about the “G: Setaria viridis, herbicidal effect grade” value (Setaria viridis) of the same compound?
A: The value was 5 (Herbicidal ratio of 90% or more (almost completely withered)).

Q: What about the “M: Abutilon theophrasti, herbicidal effect grade” value (Abutilon theophrasti) of the same compound?
A: The value was 0 (Herbicidal ratio of 5% or lower (almost no effect)).

Q: And the “I: Avena fatua, herbicidal effect grade” value (Avena fatua)?
A: Its value is 4 (Herbicidal ratio of 70% or higher and lower than 90%).

Q: And the “Herbicidal effect grade, H: Echinochloa crus-galli var. crus-galli” value [5]?
A: The value was 5 (Herbicidal ratio of 90% or more (almost completely withered)).

Q: What about the “Herbicidal effect grade, F: Digitaria ciliaris” value (Digitaria ciliaris [6]) of the same compound?
A: Its value is 5 (Herbicidal ratio of 90% or more (almost completely withered)).

Q: What about the “Herbicidal effect grade, R: Veronica persica” value (Veronica persica [7]) of the same compound?
A: Its value is 0 (Herbicidal ratio of 5% or lower (almost no effect)).

Q: What about the “O: Chenopodium album, herbicidal effect grade” value (Chenopodium album) of the same compound?
A: Its value is 3 (Herbicidal ratio of 40% or higher and lower than 70%).

Q: And the “L: Apera spica-venti, herbicidal effect grade” value (Apera spica-venti)?
A: The value was 5 (Herbicidal ratio of 90% or more (almost completely withered)).

Q: And the “Effect on crop grade, c: corn” value (corn)?
A: The value was 3 (Herbicidal ratio of 40% or higher and lower than 70%).

Q: And the “Herbicidal effect grade, J: Alopecurus myosuroides” value (Alopecurus myosuroides)?
A: The value was 3 (Herbicidal ratio of 40% or higher and lower than 70%).

Q: What about the “Effect on crop grade, f: beet” value (beet [8]) of the same compound?
A: The value was 0 (Herbicidal ratio of 5% or lower (almost no effect)).

Q: And the “b (directly sowed rice plant) effect on crop grade” value [9]?
A: Its value is 5 (Herbicidal ratio of 90% or more (almost completely withered)).

Q: What about the “b: directly sowed rice plant, effect on crop grade” value (rice plant) of the same compound?
A: Its value is 5 (Herbicidal ratio of 90% or more (almost completely withered)).

Q: What about the “f: beet, effect on crop grade” value (beet [10]) of the same compound?
A: Its value is 0 (Herbicidal ratio of 5% or lower (almost no effect)).

Q: What about the “F: Digitaria ciliaris, herbicidal effect grade” value (Digitaria ciliaris [11]) of the same compound?
A: The value was 5 (Herbicidal ratio of 90% or more (almost completely withered)).

Q: And the “Herbicidal effect grade, P: Stellaria media” value (Stellaria media [12])?
A: The value was 0 (Herbicidal ratio of 5% or lower (almost no effect)).

Q: Which “Effect on crop grade, b: directly sowed rice plant” value (rice) does the source give for `CC(CC1CC(O)=C(c2c(C)cc(-c3ccc(Cl)cc3)cc2C)C1=O)=NOCC(F)(F)F` (centres unmarked) [9-024] here?
A: The value was 5 (Herbicidal ratio of 90% or more (almost completely withered)).

Q: And the “Q: Galium spurium, herbicidal effect grade” value (Galium spurium [1])?
A: Its value is 4 (Herbicidal ratio of 70% or higher and lower than 90%).

Q: And the “Effect on crop grade, d: soybean” value (soybean)?
A: Its value is 0 (Herbicidal ratio of 5% or lower (almost no effect)).

Q: And the “e: wheat, effect on crop grade” value (wheat)?
A: Its value is 3 (Herbicidal ratio of 40% or higher and lower than 70%).

Q: And the “Herbicidal effect grade, K: Lolium multiflorum Lam.” value (Lolium multiflorum Lam.)?
A: The value was 5 (Herbicidal ratio of 90% or more (almost completely withered)).

Q: And the “Herbicidal effect grade, Q: Galium spurium” value (Galium spurium [2])?
A: Its value is 0 (Herbicidal ratio of 5% or lower (almost no effect)).

Q: What about the “Effect on crop grade, g: rapeseed” value (rapeseed) of the same compound?
A: Its value is 0 (Herbicidal ratio of 5% or lower (almost no effect)).

Q: What about the “R: Veronica persica, herbicidal effect grade” value (Veronica persica [3]) of the same compound?
A: The value was 4 (Herbicidal ratio of 70% or higher and lower than 90%).

Q: What about the “P: Stellaria media, herbicidal effect grade” value (Stellaria media [4]) of the same compound?
A: The value was 4 (Herbicidal ratio of 70% or higher and lower than 90%).

Q: And the “G: Setaria viridis, herbicidal effect grade” value (Setaria viridis)?
A: Its value is 5 (Herbicidal ratio of 90% or more (almost completely withered)).

Q: What about the “M: Abutilon theophrasti, herbicidal effect grade” value (Abutilon theophrasti) of the same compound?
A: Its value is 3 (Herbicidal ratio of 40% or higher and lower than 70%).

Q: What about the “I: Avena fatua, herbicidal effect grade” value (Avena fatua) of the same compound?
A: The value was 5 (Herbicidal ratio of 90% or more (almost completely withered)).

Q: And the “Herbicidal effect grade, H: Echinochloa crus-galli var. crus-galli” value [5]?
A: The value was 5 (Herbicidal ratio of 90% or more (almost completely withered)).

Q: What about the “Herbicidal effect grade, F: Digitaria ciliaris” value (Digitaria ciliaris [6]) of the same compound?
A: The value was 5 (Herbicidal ratio of 90% or more (almost completely withered)).

Q: What about the “Herbicidal effect grade, R: Veronica persica” value (Veronica persica [7]) of the same compound?
A: The value was 4 (Herbicidal ratio of 70% or higher and lower than 90%).

Q: And the “O: Chenopodium album, herbicidal effect grade” value (Chenopodium album)?
A: Its value is 4 (Herbicidal ratio of 70% or higher and lower than 90%).

Q: And the “L: Apera spica-venti, herbicidal effect grade” value (Apera spica-venti)?
A: The value was 5 (Herbicidal ratio of 90% or more (almost completely withered)).

Q: What about the “Effect on crop grade, c: corn” value (corn) of the same compound?
A: The value was 0 (Herbicidal ratio of 5% or lower (almost no effect)).

Q: What about the “Herbicidal effect grade, J: Alopecurus myosuroides” value (Alopecurus myosuroides) of the same compound?
A: The value was 5 (Herbicidal ratio of 90% or more (almost completely withered)).

Q: And the “Effect on crop grade, f: beet” value (beet [8])?
A: Its value is 0 (Herbicidal ratio of 5% or lower (almost no effect)).

Q: What about the “b (directly sowed rice plant) effect on crop grade” value [9] of the same compound?
A: The value was 5 (Herbicidal ratio of 90% or more (almost completely withered)).

Q: What about the “b: directly sowed rice plant, effect on crop grade” value (rice plant) of the same compound?
A: The value was 5 (Herbicidal ratio of 90% or more (almost completely withered)).

Q: What about the “f: beet, effect on crop grade” value (beet [10]) of the same compound?
A: The value was 0 (Herbicidal ratio of 5% or lower (almost no effect)).

Q: What about the “F: Digitaria ciliaris, herbicidal effect grade” value (Digitaria ciliaris [11]) of the same compound?
A: The value was 5 (Herbicidal ratio of 90% or more (almost completely withered)).

Q: And the “Herbicidal effect grade, P: Stellaria media” value (Stellaria media [12])?
A: Its value is 4 (Herbicidal ratio of 70% or higher and lower than 90%).
